Laboratory results: patent publication US5324648A, “Substituted isocoumarins as serine protease inhibitors and anti-inflammatory agents” (Georgia Tech Research Corporation, priority 1992, dated 1994)
Read-outs that look alike come from different tables or passages of the source. Blank lines part the entries; values can stand above or below the compound they belong to.

What was measured:
[1] = biological target: T1, human factor XIIa (Homo sapiens, UniProt P00748); assay: Inactivation rate of human factor XIIa; type: biochemical; details: pH 7.5, 25° C, read-out: kobs/[I]
T1 construct: human factor XIIa
T1 sequence (P00748 373-615 limits assumed): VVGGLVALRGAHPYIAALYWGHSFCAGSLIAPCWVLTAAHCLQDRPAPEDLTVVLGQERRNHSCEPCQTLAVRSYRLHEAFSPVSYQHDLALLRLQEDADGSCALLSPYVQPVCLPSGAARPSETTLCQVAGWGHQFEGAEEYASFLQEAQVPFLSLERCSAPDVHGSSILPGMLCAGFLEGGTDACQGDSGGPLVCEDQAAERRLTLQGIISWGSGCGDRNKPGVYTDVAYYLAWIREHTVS
T1 sequence (P00748 20-372 partner limits assumed): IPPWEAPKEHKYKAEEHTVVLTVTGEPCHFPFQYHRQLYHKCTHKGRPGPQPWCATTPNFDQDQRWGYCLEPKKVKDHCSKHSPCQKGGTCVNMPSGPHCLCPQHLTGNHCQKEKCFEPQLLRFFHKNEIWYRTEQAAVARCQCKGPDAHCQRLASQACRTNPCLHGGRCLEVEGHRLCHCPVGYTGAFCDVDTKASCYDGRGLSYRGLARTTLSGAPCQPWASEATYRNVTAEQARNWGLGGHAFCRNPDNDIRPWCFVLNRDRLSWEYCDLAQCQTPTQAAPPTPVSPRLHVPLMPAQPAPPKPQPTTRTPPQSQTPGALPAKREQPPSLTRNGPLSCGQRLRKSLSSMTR
Experimental: (§1) Inactivation rates of serine proteases by substituted isocoumarins were measured by the incubation method. An aliquot of inhibitor (25 or 50 μl) in Me2 SO was added to a buffered enzyme solution (0.01-2.3 μM) to initiate the inactivation. Aliquots (50 μl) were withdrawn at various intervals and the residual enzymatic activity was measured. Me2 SO concentration in the reaction mixture was 8-12% (v/v). 0.1 Hepes, 0.01M CaCl2, pH 7.5 buffer was utilized for trypsin and coagulation enzymes. 0.1M Hepes, 0.5M NaCl, pH 7.5 was utilized for other serine proteases. The inhibitor concentrations are shown in all the tables. Peptide thioesters or peptide nitroanilides with appropriate sequence were used as substrates for various serine proteases. All peptide thioester hydrolysis rates were measured with assay mixtures containing 4,4'-dithiodipyridine (ε324 =19800M^-1 cm^-1; Grasetti & Murray, Arch. Biochem. Biophys. 119, pp 41-49 (1967)). Peptide 4-nitroanilide nitroanilide hydrolysis was measured at 410 nm (ε410 =8800M^-1 cm^-1; Erlanger et al., Arch. Biochem. Biophys. 95, pp 271-278 (1961)). First order inactivation rate constant (kobs) were obtained from plots of ln (vt /vo) vs time, and the correlation coefficients were greater than 0.98.
(§2) ^a Conditions were as 0.1M Hepes, 0.01M CaCl2, pH 7.5 and 8-12%
(§3) Me2 SO and 25° C. Rate constants were measured by incubation
(§4) method unless otherwise noted. An aliquot of inhibitor was added to an
(§5) enzyme solution and aliquots removed with time and assayed for remaining
(§6) enzymatic activity. Firstorder rate constants, kobs were obtained
(§7) from the plots of ln(vt /vo) versus time.
(§8) ^a Inhibition rates were measured in 0.1M Hepes, 0.01M CaCl2, pH
(§9) 7.5 buffer, 8% Me2 SO and at 25° C.

[2] = biological target: T2, human factor XIa (Homo sapiens, UniProt P03951); assay: Inactivation rate of human factor XIa; type: biochemical; details: pH 7.5, 25° C, read-out: kobs/[I]
T2 construct: human factor XIa
Experimental: as §1, §2, §3, §4, §5, §6, §7, §8, §9

[3] = system: pig plasma; assay: Activated partial thromboplastin time (APTT), pig plasma; details: [I] 32 μM
[4] = biological target: T3, rat skin tryptase (Rattus norvegicus, UniProt P27435); assay: Inactivation rate of rat skin tryptase; type: biochemical; details: pH 7.5, Table IX; pH 7.5, 25° C; [I] 0.42-0.51 μM; read-out: kobs/[I]
T3 construct: from tissue; host or cells: rat skin
Experimental: as §1
^b Inactivation rates were measured at 25 mM phosphate, 0.5M NaCl, 1
mM EDTA, pH 7.5 buffer, 9% Me2 SO and 25° C.
as §8
(§10) 7.5 buffer for human plasmin; 25 mM Phosphate, 0.5M NaCl, 1 mM EDTA, pH
(§11) 7.5 buffer for rat skin tryptase and 0.1M Hepes, 0.5M NaCl, pH 7.5 for
(§12) human lung tryptase, human skin tryptase and rt-PA. All enzymes were
(§13) assayed with ZArg-SBzl (0.07 mM) in the presence of 4,4dithiodipyridine
(§14) (0.33 mM). Reaction mixtures contained 8% Me2 SO and assays were […]

[5] = biological target: T4, bovine thrombin (Bos taurus, UniProt P00735); assay: Inactivation rate of bovine thrombin; type: biochemical; details: pH 7.5, 25° C, read-out: kobs/[I]
T4 construct: bovine thrombin
Experimental: as §1, §2, §3, §4, §5, §6, §7, §8, §9

[6] = biological target: human lung tryptase; assay: Inactivation rate of human lung tryptase; type: biochemical; details: Table IX; pH 7.5, 25° C; [I] 0.42-0.47 μM
Experimental: as §1
(§15) ^a Inactivation rates were measured at 0.1M Hepes, 0.5M NaCl, pH 7.5
(§16) buffer, 8% Me2 SO and 25° C.
as §8, §10, §11, §12, §13, §14

[7] = biological target: T5, human thrombin (Homo sapiens, UniProt P00734); assay: Inactivation rate of human thrombin; type: biochemical; details: Table VIII; pH 7.5, 25° C; [I] 1.2-54 μM; read-out: kobs/[I]
T5 construct: human thrombin
Experimental: as §1, §8, §9

[8] = biological target: T6, human factor Xa (Homo sapiens, UniProt P00742); assay: Inactivation rate of human factor Xa; type: biochemical; details: Table VIII; pH 7.5, 25° C; [I] 3.6-44 μM; read-out: kobs/[I]
T6 construct: human factor Xa
Experimental: as §1, §2, §3, §4, §5, §6, §7, §8, §9

[9] = biological target: recombinant human tissue plasminogen activator (Homo sapiens, UniProt P00750); assay: Inactivation rate of recombinant human tissue plasminogen activator; type: biochemical; details: pH 7.5, Table IX; pH 7.5, 25° C; [I] 3.5-5.0 μM; read-out: kobs/[I]
Experimental: as §1
^a Inactivation constants were measured at 0.1M Hepes, 0.5M NaCl (or
as §8, §10, §11, §12, §13, §14

[10] = system: pig plasma; assay: Prothrombin time (PT), pig plasma; details: [I] 32 μM
[11] = Spontaneous hydrolysis in Hepes buffer; type: physicochemical; details: hepes buffer; 0.1 Hepes, 0.5M NaCl, pH 7.5, 9% Me2SO, 25° C; read-out: t1/2 for spontaneous hydrolysis
Experimental: ^a Conditions were 0.1 Hepes, 0.5M NaCl, pH 7.5 and 9% Me2 SO at
25° C. Spontaneous hydrolysis rates were measured
spectrophotometrically by monitoring the decrease in absorbance due to th
isocoumarin ring system (wavelength 335-380 nm) using the firstorder rate

[12] = biological target: T7, porcine pancreatic elastase (PPE) (Sus scrofa, UniProt P00772); assay: Inactivation of porcine pancreatic elastase (PPE); type: biochemical; details: Table IV; pH 7.5, 25° C; [I] 0.01 to 0.51 mM; read-out: kobs/[I]
T7 construct: from tissue; host or cells: porcine pancreas (from the name)

[13] = biological target: chymotrypsin (Bos taurus, UniProt P00766); assay: Inactivation of chymotrypsin; type: biochemical, bovine; details: Table IV; pH 7.5, 25° C; [I] 0.004 to 0.33 mM; read-out: kobs/[I]
[14] = biological target: T8, porcine pancreatic kallikrein (Sus scrofa, UniProt P00752); assay: Inactivation rate of porcine pancreatic kallikrein; type: biochemical; details: Table I; pH 7.5, 25° C; [I] 0.4 to 300 μM; read-out: kobs/[I]
T8 construct: from tissue; host or cells: porcine pancreas (from the name)

[15] = biological target: T9, bovine factor Xa (Bos taurus, UniProt P00743); assay: Inactivation rate of bovine factor Xa; type: biochemical; details: Table I; pH 7.5, 25° C; [I] 0.4 to 310 μM; read-out: kobs/[I]
T9 construct: bovine factor Xa

[16] = biological target: T10, human plasma kallikrein (Homo sapiens, UniProt P03952); assay: Inactivation rate of human plasma kallikrein; type: biochemical; details: Table I; pH 7.5, 25° C; [I] 3 to 330 μM (footnote g); read-out: kobs/[I]
T10 construct: human plasma kallikrein; from tissue; host or cells: human plasma (from the name)
Experimental: as §1, §2, §3, §4, §5, §6, §7

[17] = biological target: T11, bovine trypsin (Bos taurus, UniProt P00760); assay: Inactivation rate of bovine trypsin; type: biochemical; details: Table I; pH 7.5, 25° C; [I] 1 to 12 μM; read-out: kobs/[I]
T11 sequence (P00760 24-246): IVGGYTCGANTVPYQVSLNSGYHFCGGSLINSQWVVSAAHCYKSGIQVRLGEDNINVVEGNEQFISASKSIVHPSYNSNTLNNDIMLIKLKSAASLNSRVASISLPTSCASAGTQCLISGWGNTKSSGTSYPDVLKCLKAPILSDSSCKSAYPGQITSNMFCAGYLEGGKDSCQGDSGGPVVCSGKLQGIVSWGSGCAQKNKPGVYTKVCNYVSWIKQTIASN
Experimental: as §1, §2, §3, §4, §5, §6, §7, §8, §9

[18] = biological target: sheep lung lymph tryptase; assay: Inactivation rate of sheep lung lymph tryptase; type: biochemical; details: Table III; pH 7.5, 25° C; [I] 10 to 460 μM
Experimental: Inactivation rates of serine proteases by substituted isocoumarins were measured by the incubation method. An aliquot of inhibitor (25 or 50 μl) in Me2 SO was added to a buffered enzyme solution (0.01-2.3 μM) to initiate the inactivation. Aliquots (50 μl) were withdrawn at various intervals and the residual enzymatic activity was measured. […] 0.1 Hepes, 0.01M CaCl2, pH 7.5 buffer was utilized for trypsin and coagulation enzymes. […] The inhibitor concentrations are shown in all the tables. Peptide thioesters or peptide nitroanilides with appropriate sequence were used as substrates for various serine proteases.
as §15, §16

[19] = biological target: T12, cathepsin G (Homo sapiens, UniProt P08311); assay: Inactivation of cathepsin G; type: biochemical; details: Table IV; not time dependent; at 47 μM
T12 construct: from tissue; host or cells: human leukocytes
T12 sequence (P08311 21-255): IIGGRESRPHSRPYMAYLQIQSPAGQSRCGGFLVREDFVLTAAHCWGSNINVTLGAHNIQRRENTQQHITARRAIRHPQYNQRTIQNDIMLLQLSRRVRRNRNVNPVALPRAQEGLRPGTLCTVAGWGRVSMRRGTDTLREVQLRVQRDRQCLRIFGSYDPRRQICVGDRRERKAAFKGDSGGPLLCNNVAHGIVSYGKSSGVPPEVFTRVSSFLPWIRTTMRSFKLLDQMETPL

[20] = biological target: T13, human leukocyte elastase (HLE) (Homo sapiens, UniProt P08246); assay: Inactivation of human leukocyte elastase (HLE); type: biochemical; details: Table IV; pH 7.5, 25° C; [I] 0.001 to 0.18 mM; read-out: kobs/[I]
T13 construct: from tissue; host or cells: human leukocytes (from the name)
T13 sequence (P08246 30-267): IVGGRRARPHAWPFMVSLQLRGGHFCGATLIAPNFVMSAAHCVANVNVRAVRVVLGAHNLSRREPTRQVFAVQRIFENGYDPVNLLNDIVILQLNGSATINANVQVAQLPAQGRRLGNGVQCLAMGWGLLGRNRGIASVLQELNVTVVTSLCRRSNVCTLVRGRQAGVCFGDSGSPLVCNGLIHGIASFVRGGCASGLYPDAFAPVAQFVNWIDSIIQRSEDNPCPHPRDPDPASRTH

T2 sequence (P03951 388-625 limits assumed): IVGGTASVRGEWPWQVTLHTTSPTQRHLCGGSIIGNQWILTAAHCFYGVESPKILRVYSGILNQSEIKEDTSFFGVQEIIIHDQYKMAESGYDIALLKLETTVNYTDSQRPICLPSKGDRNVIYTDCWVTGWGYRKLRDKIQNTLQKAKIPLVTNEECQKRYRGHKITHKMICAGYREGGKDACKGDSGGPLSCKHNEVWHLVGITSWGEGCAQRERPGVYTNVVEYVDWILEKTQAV
T2 sequence (P03951 19-387 partner limits assumed): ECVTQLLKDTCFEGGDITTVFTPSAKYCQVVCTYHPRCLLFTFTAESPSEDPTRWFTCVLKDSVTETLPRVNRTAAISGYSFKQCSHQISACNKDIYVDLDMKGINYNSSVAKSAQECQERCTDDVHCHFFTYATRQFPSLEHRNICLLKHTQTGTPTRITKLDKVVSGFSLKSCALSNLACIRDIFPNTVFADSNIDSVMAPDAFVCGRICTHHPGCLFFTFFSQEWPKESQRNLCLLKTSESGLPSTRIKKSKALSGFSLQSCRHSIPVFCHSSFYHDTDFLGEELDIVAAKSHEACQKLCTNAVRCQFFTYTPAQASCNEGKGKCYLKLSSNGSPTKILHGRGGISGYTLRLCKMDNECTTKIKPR
T3 sequence (P27435 29-273): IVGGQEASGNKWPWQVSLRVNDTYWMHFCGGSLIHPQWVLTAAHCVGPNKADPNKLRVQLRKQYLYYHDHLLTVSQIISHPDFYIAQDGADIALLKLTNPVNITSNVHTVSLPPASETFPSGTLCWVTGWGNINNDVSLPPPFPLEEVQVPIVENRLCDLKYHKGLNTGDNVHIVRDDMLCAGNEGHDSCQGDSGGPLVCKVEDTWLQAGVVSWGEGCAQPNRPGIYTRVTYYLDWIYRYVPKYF
T7 sequence (P00772 27-266): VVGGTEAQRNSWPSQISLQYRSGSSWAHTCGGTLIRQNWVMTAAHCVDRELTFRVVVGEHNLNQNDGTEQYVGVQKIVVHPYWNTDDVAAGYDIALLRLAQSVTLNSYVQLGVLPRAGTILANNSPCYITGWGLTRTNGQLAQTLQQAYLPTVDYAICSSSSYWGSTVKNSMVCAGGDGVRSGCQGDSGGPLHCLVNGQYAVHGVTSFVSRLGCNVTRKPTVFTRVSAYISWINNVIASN
T6 sequence (P00742 235-488 limits assumed): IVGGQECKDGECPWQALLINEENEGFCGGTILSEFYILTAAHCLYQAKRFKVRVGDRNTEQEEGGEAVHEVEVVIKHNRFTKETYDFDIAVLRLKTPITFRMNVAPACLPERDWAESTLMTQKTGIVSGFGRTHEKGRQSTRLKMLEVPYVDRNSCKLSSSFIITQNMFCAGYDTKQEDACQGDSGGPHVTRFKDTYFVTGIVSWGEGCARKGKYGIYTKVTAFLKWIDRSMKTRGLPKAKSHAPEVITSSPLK
T6 sequence (P00742 41-179 partner limits assumed): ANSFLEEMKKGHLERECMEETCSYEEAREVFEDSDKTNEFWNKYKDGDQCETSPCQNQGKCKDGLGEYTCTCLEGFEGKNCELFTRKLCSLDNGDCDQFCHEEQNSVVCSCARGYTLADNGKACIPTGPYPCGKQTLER
T8 sequence (P00752 8-246): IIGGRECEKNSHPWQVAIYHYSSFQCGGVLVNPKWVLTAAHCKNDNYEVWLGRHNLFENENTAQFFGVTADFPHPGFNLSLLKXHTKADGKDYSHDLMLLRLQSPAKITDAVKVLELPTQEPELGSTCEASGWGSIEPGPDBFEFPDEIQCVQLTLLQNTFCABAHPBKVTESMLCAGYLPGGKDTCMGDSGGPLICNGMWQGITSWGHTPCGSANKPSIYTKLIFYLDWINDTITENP
T9 sequence (P00743 234-492 limits assumed): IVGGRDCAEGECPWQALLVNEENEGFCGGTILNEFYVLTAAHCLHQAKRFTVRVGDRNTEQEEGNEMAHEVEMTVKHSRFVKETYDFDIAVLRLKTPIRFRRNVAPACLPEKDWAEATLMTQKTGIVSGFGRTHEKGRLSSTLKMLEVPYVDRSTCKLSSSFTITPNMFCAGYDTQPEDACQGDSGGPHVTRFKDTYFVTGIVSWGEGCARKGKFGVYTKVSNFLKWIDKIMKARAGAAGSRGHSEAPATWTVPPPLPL
T9 sequence (P00743 41-180 partner limits assumed): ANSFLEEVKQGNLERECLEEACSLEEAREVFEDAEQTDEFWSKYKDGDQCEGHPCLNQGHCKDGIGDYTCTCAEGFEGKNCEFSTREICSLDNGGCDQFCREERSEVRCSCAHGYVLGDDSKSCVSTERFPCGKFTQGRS
recombinant human tissue plasminogen activator, sequence (P00750 36-562): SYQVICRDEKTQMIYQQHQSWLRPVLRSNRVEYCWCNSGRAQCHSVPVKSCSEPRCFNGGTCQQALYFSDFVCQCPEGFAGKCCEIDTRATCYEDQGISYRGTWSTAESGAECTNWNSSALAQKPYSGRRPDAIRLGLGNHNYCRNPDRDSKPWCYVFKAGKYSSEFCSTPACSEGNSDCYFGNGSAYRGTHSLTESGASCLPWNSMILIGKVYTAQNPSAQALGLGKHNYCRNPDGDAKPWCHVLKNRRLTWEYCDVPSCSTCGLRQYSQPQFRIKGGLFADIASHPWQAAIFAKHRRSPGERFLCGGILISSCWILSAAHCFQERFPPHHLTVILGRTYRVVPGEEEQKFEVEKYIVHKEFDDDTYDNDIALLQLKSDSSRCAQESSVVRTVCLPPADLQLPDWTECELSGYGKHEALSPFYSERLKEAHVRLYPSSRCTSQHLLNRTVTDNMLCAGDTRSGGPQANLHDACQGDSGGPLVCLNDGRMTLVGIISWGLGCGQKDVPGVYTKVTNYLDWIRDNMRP
T10 sequence (P03952 391-638 limits assumed): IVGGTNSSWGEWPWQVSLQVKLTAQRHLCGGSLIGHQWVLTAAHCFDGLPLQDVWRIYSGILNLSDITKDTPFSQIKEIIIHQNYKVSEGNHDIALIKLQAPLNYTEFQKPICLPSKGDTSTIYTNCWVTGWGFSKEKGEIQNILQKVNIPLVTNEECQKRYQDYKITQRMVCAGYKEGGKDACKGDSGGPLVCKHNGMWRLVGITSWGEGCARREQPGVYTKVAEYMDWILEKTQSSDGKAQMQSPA
T10 sequence (P03952 20-390 partner limits assumed): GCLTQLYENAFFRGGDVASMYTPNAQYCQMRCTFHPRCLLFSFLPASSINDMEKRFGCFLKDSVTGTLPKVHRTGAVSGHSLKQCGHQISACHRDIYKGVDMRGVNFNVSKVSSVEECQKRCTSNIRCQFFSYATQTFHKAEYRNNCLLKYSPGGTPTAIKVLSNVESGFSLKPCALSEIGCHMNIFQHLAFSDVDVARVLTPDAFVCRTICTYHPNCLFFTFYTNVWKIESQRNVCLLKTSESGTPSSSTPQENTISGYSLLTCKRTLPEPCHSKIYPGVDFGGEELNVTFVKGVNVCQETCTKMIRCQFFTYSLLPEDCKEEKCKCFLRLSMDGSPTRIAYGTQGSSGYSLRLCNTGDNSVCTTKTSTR

- kinact/KI ([1]; Table VIII, [I] 3.6-4.9 μM): 45000 M⁻¹ s⁻¹
- kinact/KI ([2]; Table VIII, [I] 0.7-0.8 μM): 105000 M⁻¹ s⁻¹
- kinact/KI [4]: 200000 M⁻¹ s⁻¹
- kinact/KI ([5]; Table VIII, [I] 1.2-54 μM): 16800 M⁻¹ s⁻¹
- kobs/[I] [6]: 280,000 M^-1 s^-1
- kinact/KI [7]: 11700 M⁻¹ s⁻¹
- kinact/KI [8]: 2340 M⁻¹ s⁻¹
- kinact/KI [9]: 19000 M⁻¹ s⁻¹
SMILES: N=C(N)SCCOc1oc(=O)c2cc(NC(=O)NCc3ccccc3)ccc2c1Cl [PhCH2 NHCONH-CiTEtOIC, 7-(benzylcarbamoylamino)-4-chloro-3-(2-isothiureidoethoxy)isocoumarin]
- APTT [3]: > 120 s
- PT [10]: 31.1 s

- kinact/KI ([1]; Table I, [I] 3 to 330 μM): 1300 M⁻¹ s⁻¹
- kinact/KI ([2]; Table I, [I] 3 to 330 μM): 3100 M⁻¹ s⁻¹
- half-life [11]: 2.27 h
- kinact/KI [12]: 86 M⁻¹ s⁻¹
- kinact/KI ([5]; Table I, [I] 0.3 to 400 μM): 3700 M⁻¹ s⁻¹
- kinact/KI [13]: 990 M⁻¹ s⁻¹
- kinact/KI [14]: 16000 M⁻¹ s⁻¹
- kinact/KI [15]: 2700 M⁻¹ s⁻¹
- kinact/KI [16]: 44000 M⁻¹ s⁻¹
- kinact/KI [17]: 20000 M⁻¹ s⁻¹
- kobs/[I] [18]: 150 M⁻¹ s⁻¹
- inhibition at 47 µM [19]: 87%
- kinact/KI [20]: 1900 M⁻¹ s⁻¹
SMILES: CCOc1cc2ccc(NC(=N)N)cc2c(=O)o1 [7-guanidino-3-ethoxyisocoumarin]
